Paper PMC6430037 (Heliyon, 2019)
Structures can show the parent of a compound that is named as a salt.

Key:
[1] = test system: mice; assay: Tail suspension test; type: in vivo; conditions: 30 min before
[2] = test system: BDZ-bs of the GABAA receptor; assay: [3H]-FNZ radioligand binding assay; conditions: [3H]-FNZ displacement, compound at 300 μM, rat cerebral cortex membranes
[3] = biological target: T1, 5-HT1A receptor (Rattus norvegicus, UniProt P19327); assay: [3H]-8-OH-DPAT radioligand binding assay; conditions: for inhibition at 300 µM: read-out: 5-HT1A Binding Inhibition (%) [300 μM]
T1 sequence (P19327 1-422): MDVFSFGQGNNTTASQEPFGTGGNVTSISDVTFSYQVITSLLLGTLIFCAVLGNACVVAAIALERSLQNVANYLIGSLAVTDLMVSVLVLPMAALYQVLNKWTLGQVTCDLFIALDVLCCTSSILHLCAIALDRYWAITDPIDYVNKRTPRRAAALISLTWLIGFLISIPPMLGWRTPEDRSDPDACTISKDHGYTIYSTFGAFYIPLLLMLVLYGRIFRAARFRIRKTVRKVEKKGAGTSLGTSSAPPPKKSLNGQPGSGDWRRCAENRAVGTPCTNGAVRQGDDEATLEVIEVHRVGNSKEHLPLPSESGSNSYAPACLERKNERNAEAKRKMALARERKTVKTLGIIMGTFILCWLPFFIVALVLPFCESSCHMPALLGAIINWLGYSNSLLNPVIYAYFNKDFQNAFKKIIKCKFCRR

[4] = biological target: μ-opioid receptor (Rattus norvegicus, UniProt P33535); assay: [3H]-DAMGO radioligand binding assay; conditions: for inhibition at 300 µM: read-out: μ-opioid Binding inhibition (%) [300 μM]; for Ki: μ-opioid Ki, [3H]-DAMGO, rat forebrain membranes, Ki ± SEM, 2 determinations
[5] = test system: mice; assay: Acetic acid induced writhing test; type: in vivo
[6] = test system: mice; assay: Hot plate test; type: in vivo; conditions: plate 52.5 °C
[7] = test system: rats; conditions: cited from earlier work
[8] = test system: mice; conditions: cited from earlier work
[9] = test system: mice; conditions: cited from earlier work; remark: listed apart in the source
[10] = test system: mice; assay: Elevated plus-maze test; type: in vivo
[11] = test system: mice; assay: Spontaneous locomotor activity; type: in vivo; conditions: 10 and 30 mg/kg i.p., 5 min counts
[12] = Cell viability assay; type: cell-based, human; conditions: human, SH-SY5Y cells
[13] = PAMPA-BBB permeability assay; type: in vitro ADME
[14] = 10 mg/kg i.p., 30 min before, 5 min session

Chain of μ-opioid receptor (P33535 whole entry): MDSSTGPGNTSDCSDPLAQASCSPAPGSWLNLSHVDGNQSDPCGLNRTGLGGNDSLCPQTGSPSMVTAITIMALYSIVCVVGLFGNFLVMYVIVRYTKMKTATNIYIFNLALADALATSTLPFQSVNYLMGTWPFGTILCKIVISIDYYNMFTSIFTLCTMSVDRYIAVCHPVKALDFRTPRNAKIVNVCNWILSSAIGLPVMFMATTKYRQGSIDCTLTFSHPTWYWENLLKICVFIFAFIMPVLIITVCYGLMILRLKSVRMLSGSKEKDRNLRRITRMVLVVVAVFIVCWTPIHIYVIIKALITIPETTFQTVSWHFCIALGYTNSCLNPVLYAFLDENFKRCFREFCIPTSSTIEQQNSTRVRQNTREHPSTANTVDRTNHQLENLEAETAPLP

CN(C)CCCN1c2ccccc2CCc2ccccc21 [IMP, imipramine hydrochloride, reference compound]
immobility time vs VEH ([1]; 30 mg/kg i.p.): significantly reduced

O=C(/C=C/c1ccccc1)c1cc(F)ccc1O [Compound 7, (2E)-1-(5-fluoro-2-hydroxyphenyl)-3-phenyl-2-propen-1-one]
BDZ-bs Binding inhibition (%) [300 μM] [2]: ++ (inhibition 40–60% (++)) | Ki [3]: 129 ± 2.7 µM | inhibition at 300 µM [3]: 60 to 90% | inhibition at 300 µM [4]: 60 to 90% | Ki [4]: 29.5 ± 6.6 µM

Cc1cc(O)c(C(=O)/C=C/c2ccccc2)cc1C [Compound 11, (2E)-1-(4,5-dimethyl-2-hydroxyphenyl)-3-phenyl-2-propen-1-one]
BDZ-bs Binding inhibition (%) [300 μM] [2]: + (inhibition 20–40% (+)) | Ki [3]: 164 ± 1.47 µM | inhibition at 300 µM [3]: 60 to 90% | inhibition at 300 µM [4]: 60 to 90% | Ki [4]: 29.1 ± 8.5 µM

CN1CC[C@]23c4c5ccc(O)c4O[C@H]2[C@@H](O)C=C[C@H]3[C@H]1C5 [morphine, Morphine hydrochloride, reference compound]
abdominal cramps ([5]; 6 mg/kg i.p.): no abdominal cramps | latency time ([6]; 6 mg/kg i.p., 45 s cut-off): 42.6 s

COc1ccc(C(=O)/C=C/c2ccccc2)c(O)c1 [Compound 3, (2E)-1-(2-hydroxy-4-methoxyphenyl)-3-phenyl-2-propen-1-one]
BDZ-bs Binding inhibition (%) [300 μM] [2]: +++ (inhibition 60–90% (+++)) | inhibition at 300 µM [3]: 20 to 40% | inhibition at 300 µM [4]: 20 to 40%

CN(C)c1ccc(/C=C/C(=O)c2ccccc2)cc1 [Compound 20, (2E)-3-[4-(dimethylamino)phenyl]-1-phenyl-2-propen-1-one]
BDZ-bs Binding inhibition (%) [300 μM] [2]: - (inhibition <20% (-)) | Ki [3]: 59.6 ± 1.5 µM | inhibition at 300 µM [3]: 60 to 90% | inhibition at 300 µM [4]: 60 to 90% | Ki [4]: 23.8 ± 3.1 µM

O=C(/C=C/c1ccc(O)c(O)c1)c1ccc(O)cc1O [butein]
effect in the plus-maze test [7]: anxiolytic-like effect

O=C(/C=C/c1ccccc1)c1ccccc1O [Compound 2, (2E)-1-(2-hydroxyphenyl)-3-phenyl-2-propen-1-one]
BDZ-bs Binding inhibition (%) [300 μM] [2]: +++ (inhibition 60–90% (+++)) | Ki [3]: 71.4 ± 1.4 µM | inhibition at 300 µM [3]: 60 to 90% | inhibition at 300 µM [4]: 20 to 40%

O=C(/C=C/c1c(Cl)cccc1Cl)c1ccc(O)cc1O [2,6-dichloro-2′,4′-dihydroxychalcone]
head-twitches in the 5-HT induced head-twitch test [8]: significantly increased head-twitches | lethality in the yohimbine-induced mortality test [9]: enhanced the mouse lethality

O=C(/C=C/c1ccccc1)c1cc(Br)cc(Br)c1O [Compound 10, (2E)-1-(3,5-dibromo-2-hydroxyphenyl)-3-phenyl-2-propen-1-one]
BDZ-bs Binding inhibition (%) [300 μM] [2]: - (inhibition <20% (-)) | Ki [3]: 1220 ± 469 µM | inhibition at 300 µM [3]: 60 to 90% | inhibition at 300 µM [4]: 60 to 90% | Ki [4]: 32.5 ± 9.3 µM

O=C(/C=C/c1ccccc1)c1cc(Cl)ccc1O [Compound 6, (2E)-1-(5-chloro-2-hydroxyphenyl)-3-phenyl-2-propen-1-one]
BDZ-bs Binding inhibition (%) [300 μM] [2]: ++ (inhibition 40–60% (++)) | inhibition at 300 µM [3]: 40 to 60% | inhibition at 300 µM [4]: 60 to 90% | Ki [4]: 19.4 ± 3.5 µM | number of writhes vs VEH ([5]; 10 mg/kg i.p., acetic acid 0.75%): significantly reduced | reaction (latency) time against thermal stimulus vs VEH ([6]; 30 mg/kg i.p.): Only chalcone 12 at 30 mg/kg caused significant increases

Cc1ccc(C(=O)/C=C/c2ccccc2)cc1 [Compound 15, (2E)-1-(4-methylphenyl)-3-phenyl-2-propen-1-one]
BDZ-bs Binding inhibition (%) [300 μM] [2]: +++ (inhibition 60–90% (+++)) | inhibition at 300 µM [3]: 40 to 60% | inhibition at 300 µM [4]: 20 to 40%

O=C(/C=C/c1cccc(Cl)c1)c1ccccc1 [Compound 18, (2E)-3-(3-chlorophenyl)-1-phenyl-2-propen-1-one]
BDZ-bs Binding inhibition (%) [300 μM] [2]: ++ (inhibition 40–60% (++)) | inhibition at 300 µM [3]: 20 to 40% | inhibition at 300 µM [4]: 20 to 40%

COc1ccc(O)c(C(=O)/C=C/c2ccccc2)c1 [Compound 4, (2E)-1-(2-hydroxy-5-methoxyphenyl)-3-phenyl-2-propen-1-one]
BDZ-bs Binding inhibition (%) [300 μM] [2]: +++ (inhibition 60–90% (+++)) | Ki [3]: 303 ± 1.2 µM | inhibition at 300 µM [3]: 60 to 90% | inhibition at 300 µM [4]: 60 to 90% | Ki [4]: 54.6 ± 2.9 µM

O=C(/C=C/c1ccccc1)c1cc(Br)ccc1O [Compound 8, (2E)-1-(5-bromo-2-hydroxyphenyl)-3-phenyl-2-propen-1-one]
BDZ-bs Binding inhibition (%) [300 μM] [2]: ++ (inhibition 40–60% (++)) | inhibition at 300 µM [3]: 40 to 60% | inhibition at 300 µM [4]: 20 to 40%

O=C(/C=C/c1cccc([N+](=O)[O-])c1)c1ccccc1 [Compound 16, (2E)-3-(3-nitrophenyl)-1-phenyl-2-propen-1-one]
BDZ-bs Binding inhibition (%) [300 μM] [2]: ++++ (inhibition >90% (++++)) | inhibition at 300 µM [3]: 40 to 60% | inhibition at 300 µM [4]: < 20% | number of total arm entries vs VEH [10, 14]: significantly increased

COc1cc(C(=O)/C=C/c2ccccc2)ccc1O [Compound 13, (2E)-1-(4-hydroxy-3-methoxyphenyl)-3-phenyl-2-propen-1-one]
BDZ-bs Binding inhibition (%) [300 μM] [2]: ++ (inhibition 40–60% (++)) | Ki [3]: 287.8 ± 1.9 µM | inhibition at 300 µM [3]: 40 to 60% | inhibition at 300 µM [4]: 40 to 60%

Nc1ccc(C(=O)/C=C/c2cccc([N+](=O)[O-])c2)cc1 [Compound 21, (2E)-1-(4-aminophenyl)-3-(3-nitrophenyl)-2-propen-1-one]
Ki [3]: 473 ± 7.3 µM | inhibition at 300 µM [3]: 60 to 90% | inhibition at 300 µM [4]: 40 to 60%

Cc1ccc(O)c(C(=O)/C=C/c2ccccc2)c1 [Compound 9, (2E)-1-(2-hydroxy-5-methylphenyl)-3-phenyl-2-propen-1-one]
spontaneous locomotor activity vs VEH [11]: did not show significant differences | viability at 48 h, 20 µM [12]: 88.5% | Papp at 16 h, 50 µM ([13]; PAMPA, pH 7.4): 25.1 ×10⁻⁶ cm/s | BBB penetration estimation Prediction ([13]; PAMPA-BBB binning by -logPe): CNS+ (CNS+, -logPe < 5.6, high permeability) | BDZ-bs Binding inhibition (%) [300 μM] [2]: +++ (inhibition 60–90% (+++)) | inhibition at 300 µM [3]: 40 to 60% | inhibition at 300 µM [4]: 60 to 90% | Ki [4]: 46.3 ± 1.6 µM | percentage of open arm entries vs VEH [10, 14]: significantly increased | percentage of time spent in open arms vs VEH [10, 14]: significantly increased | number of total arm entries vs VEH ([10]; 30 mg/kg i.p.): significantly increased

Nc1ccc(C(=O)/C=C/c2ccccc2)cc1 [Compound 14, (2E)-1-(4-aminophenyl)-3-phenyl-2-propen-1-one]
BDZ-bs Binding inhibition (%) [300 μM] [2]: +++ (inhibition 60–90% (+++)) | inhibition at 300 µM [3]: 40 to 60% | inhibition at 300 µM [4]: 60 to 90% | Ki [4]: 59.4 ± 1.5 µM

COc1cccc(O)c1C(=O)/C=C/c1ccccc1 [Compound 5, (2E)-1-(2-hydroxy-6-methoxyphenyl)-3-phenyl-2-propen-1-one]
BDZ-bs Binding inhibition (%) [300 μM] [2]: - (inhibition <20% (-)) | Ki [3]: 13.3 ± 0.3 µM | inhibition at 300 µM [3]: > 90% | inhibition at 300 µM [4]: 60 to 90% | Ki [4]: 26.7 ± 1.6 µM | immobility time vs VEH ([1]; 10 mg/kg i.p.): not active

O=C(/C=C/c1ccc(Cl)cc1)c1ccccc1 [Compound 19, (2E)-3-(4-chlorophenyl)-1-phenyl-2-propen-1-one]
BDZ-bs Binding inhibition (%) [300 μM] [2]: + (inhibition 20–40% (+)) | inhibition at 300 µM [3]: < 20% | inhibition at 300 µM [4]: 20 to 40%

O=C(/C=C/c1ccc([N+](=O)[O-])cc1)c1ccccc1 [Compound 17, (2E)-3-(4-nitrophenyl)-1-phenyl-2-propen-1-one]
BDZ-bs Binding inhibition (%) [300 μM] [2]: - (inhibition <20% (-)) | inhibition at 300 µM [3]: < 20% | inhibition at 300 µM [4]: 20 to 40%
